This is an account of results in ChEMBL document CHEMBL1136973, “Structure-activity relationships of heteroaromatic esters as human rhinovirus 3C protease inhibitors” (Bioorg Med Chem Lett, 2009).

The source made the active and inactive calls. No cut-off for these calls is given here.

The first assay deals with Genome polyprotein (rhinovirus A16) (UniProt Q82122). Description: Inhibition of HRV-16 protease 3C expressed in Escherichia coli BL21(DE3) at 1 uM by FRET assay.
Genome polyprotein (rhinovirus A16), sequence (Q82122 whole entry): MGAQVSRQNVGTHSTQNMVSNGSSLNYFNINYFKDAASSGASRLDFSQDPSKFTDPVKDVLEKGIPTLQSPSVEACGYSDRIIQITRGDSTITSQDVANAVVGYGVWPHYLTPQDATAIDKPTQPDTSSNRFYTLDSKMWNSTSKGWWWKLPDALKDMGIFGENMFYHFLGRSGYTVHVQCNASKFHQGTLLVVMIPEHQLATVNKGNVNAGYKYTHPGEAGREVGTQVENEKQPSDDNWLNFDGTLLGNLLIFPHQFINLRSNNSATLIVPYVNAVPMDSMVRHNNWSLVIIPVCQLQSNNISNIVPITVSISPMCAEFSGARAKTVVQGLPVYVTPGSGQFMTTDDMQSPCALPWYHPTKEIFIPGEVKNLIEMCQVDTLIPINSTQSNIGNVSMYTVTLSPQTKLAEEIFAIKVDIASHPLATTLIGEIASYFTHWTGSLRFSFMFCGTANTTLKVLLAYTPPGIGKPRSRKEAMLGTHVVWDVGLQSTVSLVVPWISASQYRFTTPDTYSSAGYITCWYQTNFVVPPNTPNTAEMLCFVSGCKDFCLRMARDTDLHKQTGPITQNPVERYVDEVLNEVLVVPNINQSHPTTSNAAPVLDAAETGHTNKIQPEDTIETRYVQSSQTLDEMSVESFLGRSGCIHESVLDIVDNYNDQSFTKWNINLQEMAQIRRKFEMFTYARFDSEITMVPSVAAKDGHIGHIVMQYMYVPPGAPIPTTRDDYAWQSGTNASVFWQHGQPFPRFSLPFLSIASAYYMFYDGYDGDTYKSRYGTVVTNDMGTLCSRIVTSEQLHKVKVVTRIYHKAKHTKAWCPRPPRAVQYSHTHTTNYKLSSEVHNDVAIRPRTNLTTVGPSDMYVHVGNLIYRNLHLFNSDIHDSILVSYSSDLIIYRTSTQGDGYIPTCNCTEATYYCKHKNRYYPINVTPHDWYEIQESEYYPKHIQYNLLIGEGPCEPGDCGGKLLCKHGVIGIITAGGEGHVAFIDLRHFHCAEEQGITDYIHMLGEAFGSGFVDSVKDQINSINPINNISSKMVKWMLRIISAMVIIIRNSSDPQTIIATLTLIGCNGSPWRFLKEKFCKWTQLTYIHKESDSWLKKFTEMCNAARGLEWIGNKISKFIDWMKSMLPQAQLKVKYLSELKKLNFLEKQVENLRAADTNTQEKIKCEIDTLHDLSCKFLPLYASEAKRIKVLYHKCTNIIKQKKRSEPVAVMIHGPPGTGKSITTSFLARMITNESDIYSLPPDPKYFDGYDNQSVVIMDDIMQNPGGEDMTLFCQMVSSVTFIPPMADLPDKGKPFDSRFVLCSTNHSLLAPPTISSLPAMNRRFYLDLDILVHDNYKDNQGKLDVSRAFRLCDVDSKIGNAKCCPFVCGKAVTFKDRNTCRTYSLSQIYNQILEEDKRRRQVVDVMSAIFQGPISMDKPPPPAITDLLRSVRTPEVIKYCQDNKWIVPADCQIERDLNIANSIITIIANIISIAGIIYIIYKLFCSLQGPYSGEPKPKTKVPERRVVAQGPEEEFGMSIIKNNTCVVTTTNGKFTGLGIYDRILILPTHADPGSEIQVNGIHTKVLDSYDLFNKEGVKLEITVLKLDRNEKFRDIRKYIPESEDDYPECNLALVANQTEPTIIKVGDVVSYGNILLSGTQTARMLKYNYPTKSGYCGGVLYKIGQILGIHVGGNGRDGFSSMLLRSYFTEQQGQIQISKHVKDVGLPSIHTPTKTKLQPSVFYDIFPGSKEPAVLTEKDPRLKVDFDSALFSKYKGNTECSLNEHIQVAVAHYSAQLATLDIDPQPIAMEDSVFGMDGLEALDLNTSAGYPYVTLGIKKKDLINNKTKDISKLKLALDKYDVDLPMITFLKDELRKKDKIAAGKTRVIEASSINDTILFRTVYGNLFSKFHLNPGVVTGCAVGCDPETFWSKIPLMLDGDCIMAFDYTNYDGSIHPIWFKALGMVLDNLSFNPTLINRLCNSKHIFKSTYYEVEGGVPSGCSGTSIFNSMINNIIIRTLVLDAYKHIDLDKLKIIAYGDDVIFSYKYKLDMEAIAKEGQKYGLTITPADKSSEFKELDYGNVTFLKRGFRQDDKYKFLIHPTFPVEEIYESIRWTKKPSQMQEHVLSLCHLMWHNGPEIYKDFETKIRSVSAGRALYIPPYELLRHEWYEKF
Usually inhibition stands for the share of the control response that was lost under treatment. As for `O=C(Oc1cncc(Cl)c1)c1ccc(-c2ccccc2)o1`, the inhibition came out at 80%.

Turning to `O=C(Oc1cncc(Cl)c1)c1c[nH]cn1`, the inhibition was 82%. With `O=C(Oc1ccncc1)c1ccco1`, the inhibition entry was “inactive”. The same measure, in the same setting: the figure for `O=C(Oc1cncc(Br)c1)c1ccco1` is 90%; for `O=C(Oc1ccccn1)c1ccco1` it is “inactive”. Compound `NC(=O)c1ccc(OC(=O)c2ccco2)cc1` displayed an inhibition of 5%. On the same count and under the same terms, the entry for `Cc1cc(C(=O)Oc2cncc(Cl)c2)no1` is “inactive”; for `O=C(/C=C/c1ccccc1)Oc1cncc(Br)c1` it is 63%. Still for that read-out and setting: the figure for `CCOc1nc(Cc2ccccc2)oc1C(=O)Oc1cncc(Cl)c1` is 5%.

For the compound `CCOc1nc(-c2ccccc2)oc1C(=O)Oc1cncc(Cl)c1`, the inhibition entry was “inactive”. Turning to `CCOc1nc(C(c2ccccc2)c2ccccc2)oc1C(=O)Oc1cncc(Cl)c1`, the inhibition was found to be 5%.

As for `O=C(Oc1cc(=O)[nH]c2ccccc12)c1ccco1`, the inhibition was 98%. Still for that read-out and setting: the figure for `NC(=O)c1cccc(OC(=O)c2ccco2)c1` is 5%; for `O=C(CCc1ccccc1)Oc1cncc(Br)c1` it is 34%. Compound `CCOc1nc(/C=C/c2ccccc2)oc1C(=O)Oc1cncc(Cl)c1` yielded an inhibition of 87%. The same measure, in the same setting: the same measure for `Nc1ncccc1OC(=O)c1ccco1`: 24%; for `O=C(Oc1cncc(Cl)c1)c1cn(-c2ccc(C(F)(F)F)cc2)cn1`: 40%; for `O=C(Oc1cncc(Cl)c1)c1cccs1`: 64%. Same read-out and setting: the entry for `O=C(Oc1cccnc1C(=O)O)c1ccco1` is “inactive”; for `O=C(Oc1cncc(Cl)c1)c1ccc(-c2ccc(Cl)cc2)o1` it is 89%; for `Cc1ccc(-c2ccc(C(=O)Oc3cncc(Cl)c3)o2)cc1` it is 79%. Take `O=C(Oc1cccnc1)c1ccco1`: the inhibition came out at 8%. On the same count and under the same terms, the same measure for `CCOc1nc(-c2ccc3ccccc3c2)oc1C(=O)Oc1cncc(Cl)c1`: 34%; for `O=C(Oc1cncc(Cl)c1)c1ccccc1`: 59%. Same read-out and setting: the same measure for `O=C(Oc1cncc(Cl)c1)c1ccco1`: 87%; for `O=C(Oc1cc(Cl)cnc1O)c1ccco1`: “inactive”; for `O=C(Oc1cncc(Cl)c1)c1ccc(-c2ccc([N+](=O)[O-])cc2)o1`: 60%. `O=C(Oc1cncc(Cl)c1)c1ccc2ccccc2c1` displayed an inhibition of 80%. `NC(=O)c1ncccc1OC(=O)c1ccco1` displayed an inhibition of 14%. On the same count and under the same terms, the same measure for `O=C(Oc1cncc(Cl)c1)c1cccc2ccccc12`: 75%.

In the case of `O=C(Oc1cccnc1O)c1ccco1`, the inhibition result is “inactive”.

The next assay has the same target. The assay is described as follows: Inhibition of HRV-16 protease 3C expressed in Escherichia coli BL21(DE3) at 10 uM by FRET assay.
`NC(=O)c1ccc(OC(=O)c2ccco2)cc1` showed an inhibition of 21%.

The target of another assay is Genome polyprotein (rhinovirus A16, UniProt Q82122). The assay is described as follows: Inhibition of HRV-16 protease 3C expressed in Escherichia coli BL21(DE3) by FRET assay.
Genome polyprotein, sequence (Q82122 1511-1693 limits assumed): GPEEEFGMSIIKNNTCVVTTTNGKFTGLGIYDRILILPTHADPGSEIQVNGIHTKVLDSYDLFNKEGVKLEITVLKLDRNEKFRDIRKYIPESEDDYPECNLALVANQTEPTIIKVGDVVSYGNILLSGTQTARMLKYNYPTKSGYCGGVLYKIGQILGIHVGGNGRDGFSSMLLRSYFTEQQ
In general, IC50 refers to the concentration needed to halve the response being measured. Low values mean greater potency in that assay, high ones weaker potency in that assay. Consider `O=C(Oc1cncc(Br)c1)c1ccco1`, for which the 50% inhibitory concentration (IC50) was found to be 80 nM.

Turning to `O=C(Oc1cc(=O)[nH]c2ccccc12)c1ccco1`, the IC50 is 200 nM. Same read-out and setting: the same measure for `CCOc1nc(/C=C/c2ccccc2)oc1C(=O)Oc1cncc(Cl)c1`: 690 nM. On the same count and under the same terms, the same measure for `O=C(Oc1cncc(Cl)c1)c1ccc2ccccc2c1`: 710 nM. Same read-out and setting: the same measure for `O=C(Oc1cncc(Cl)c1)c1cnc[nH]1`: 290 nM.

For a further assay, the target named is Replicase polyprotein 1ab (Severe acute respiratory syndrome-related coronavirus, UniProt P0C6X7). The assay is described as follows: Inhibition of SARS coronavirus isolate Tor2 3C-like protease by FRET assay.
In turn, `O=C(Oc1cccnc1)c1cccs1` registered an IC50 of 500 nM.
